Measurements from PMC9609429 (Pharmaceuticals, 2022).

Key:
α1-adrenoceptor = α1-adrenoceptor radioligand binding assay ([3H]-prazosin, rat cerebral cortex); conditions: rat cortex tissue
Experimental: The α1-, α2-, and β1-adrenoceptor radioligand binding assay was carried out on the rat cerebral cortex. [^3H]-prazosin (19.5 Ci/mmol, α1-adrenoceptor), [^3H]-clonidine (70.5 Ci/mmol, α2-adrenoceptor), and [^3H]-CGP-12177 (48 Ci/mmol, β1-adrenergic receptor) were used as specific ligands. The brains were homogenized using ULTRA-TURRAX homogenizer in 10 mL of an ice-cold 50 mM Tris–HCl buffer (pH 7.6). Homogenates were centrifuged at 20,000× g for 20 min (0–4 °C). Next, the cell pellet was resuspended in the Tris–HCl buffer and centrifuged again. Radioligand binding assays were performed in plates (MultiScreen/Millipore). The final incubation mixture (volume 300 μL) consisted of 240 μL of the tissue suspension, 30 μL of radioligand solution, and 30 μL of the buffer containing 7–8 concentrations of the tested compound. […] The incubation was terminated by rapid filtration through Whatman GF/C filters using a vacuum manifold (Millipore). The filters were then washed twice with the assay buffer and placed in scintillation vials with a liquid scintillation cocktail. Radioactivity was measured in a WALLAC 1409 DSA liquid scintillation counter (Perkin Elmer, Waltham, MA, USA). All the assays were made in duplicates and the inhibitory constants (Ki) were estimated.

[1] = system: adrenaline-induced arrhythmia in rats; conditions: administered intravenously; cited from earlier work

Row | SMILES | Adrenergic Receptors—pKi α1 (α1-adrenoceptor) | ED50 (adrenaline-induced arrhythmia) [1]
1 | Cc1ccc(N(CC2=NCCN2)c2cccc(O)c2)cc1 [Phentolamine, phentolamine, reference compound] | 8.04 | –
2 | COc1ccccc1OCCNCC(O)COc1cccc2[nH]c3ccccc3c12 (centres unmarked) [carvedilol] | – | 0.36 mg/kg
